Assay results taken from ChEMBL document CHEMBL6127119 (J Med Chem, 2024).
Converted amounts (≈) assume the structure as drawn.

What was measured:
[1] = test system: Staphylococcus haemolyticus; test: Antibacterial activity against methicillin-resistant Staphylococcus haemolyticus clinical isolate incubated for 16 to 24 hrs by CLSI based broth microdilution method; type: functional; conditions: time 16-24 hrs
Staphylococcus hominis = test: Antibacterial activity against methicillin-resistant Staphylococcus hominis clinical isolate incubated for 16 to 24 hrs by CLSI based broth microdilution method; type: functional; conditions: time 16-24 hrs
Enterococcus faecalis = test: Antibacterial activity against Enterococcus faecalis clinical isolate incubated for 16 to 24 hrs by CLSI based broth microdilution method; type: functional; conditions: time 16-24 hrs
Enterococcus faecium [2] = test: Antibacterial activity against vancomycin-resistant Enterococcus faecium harboring VanA phenotype clinical isolate incubated for 16 to 24 hrs by CLSI based broth microdilution method; type: functional; conditions: time 16-24 hrs
Staphylococcus aureus [3] = test: Antibacterial activity against methicillin-resistant Staphylococcus aureus clinical isolate incubated for 16 to 24 hrs by CLSI based broth microdilution method; type: functional; conditions: time 16-24 hrs
Escherichia coli [4] = test: Antibacterial activity against Escherichia coli AB1157 incubated for 16 to 24 hrs by CLSI based broth microdilution method; type: functional; conditions: time 16-24 hrs
Staphylococcus aureus [5] = test: Antibacterial activity against methicillin-susceptible Staphylococcus aureus incubated for 16 to 24 hrs by CLSI based broth microdilution method; type: functional; conditions: time 16-24 hrs
Enterococcus faecium [6] = test: Potency index, ratio of Norvancomycin MIC to test compound MIC for vancomycin-resistant Enterococcus faecium incubated for 16 to 24 hrs by CLSI based broth microdilution method; type: functional; conditions: time 16-24 hrs
Escherichia coli [7] = test: Potency index, ratio of Norvancomycin MIC to test compound MIC for Escherichia coli […] incubated for 16 to 24 hrs by CLSI based broth microdilution method; type: functional; conditions: time 16-24 hrs
Staphylococcus aureus [8] = test: Antibacterial activity against vancomycin-intermediate Staphylococcus aureus incubated for 16 to 24 hrs by CLSI based broth microdilution method; type: functional; conditions: time 16-24 hrs
Staphylococcus aureus [9] = test: Potency index, ratio of Vancomycin MIC to test compound MIC for vancomycin-intermediate Staphylococcus aureus incubated for 16 to 24 hrs by CLSI based broth microdilution method; type: functional; conditions: time 16-24 hrs
Staphylococcus aureus [10] = test: Potency index, ratio of Norvancomycin MIC to test compound MIC for vancomycin-intermediate Staphylococcus aureus incubated for 16 to 24 hrs by CLSI based broth microdilution method; type: functional; conditions: time 16-24 hrs
Escherichia coli [11] = test: Potency index, ratio of Vancomycin MIC to test compound MIC for Escherichia coli […] incubated for 16 to 24 hrs by CLSI based broth microdilution method; type: functional; conditions: time 16-24 hrs
Acinetobacter baumannii [12] = test: Potency index, ratio of Vancomycin MIC to test compound MIC for Carbapenem-resistant Acinetobacter baumannii clinical isolate incubated for 16 to 24 hrs by CLSI based broth microdilution method; type: functional; conditions: time 16-24 hrs
Enterococcus faecium [13] = test: Antibacterial activity against vancomycin-resistant Enterococcus faecium harboring VanB phenotype incubated for 16 to 24 hrs by CLSI based broth microdilution method; type: functional; conditions: time 16-24 hrs
Enterococcus faecium [14] = test: Antibacterial activity against vancomycin-resistant Enterococcus faecium harboring VanA phenotype incubated for 16 to 24 hrs by CLSI based broth microdilution method; type: functional; conditions: time 16-24 hrs
Enterococcus faecium [15] = test: Potency index, ratio of Vancomycin MIC to test compound MIC for vancomycin-resistant Enterococcus faecium incubated for 16 to 24 hrs by CLSI based broth microdilution method; type: functional; conditions: time 16-24 hrs
Acinetobacter baumannii [16] = test: Antibacterial activity against Carbapenem-resistant Acinetobacter baumannii clinical isolate incubated for 16 to 24 hrs by CLSI based broth microdilution method; type: functional; conditions: time 16-24 hrs
Pseudomonas aeruginosa = test: Antibacterial activity against Pseudomonas aeruginosa PAO1 incubated for 16 to 24 hrs by CLSI based broth microdilution method; type: functional; conditions: time 16-24 hrs
Acinetobacter baumannii [17] = test: Potency index, ratio of Norvancomycin MIC to test compound MIC for Carbapenem-resistant Acinetobacter baumannii clinical isolate incubated for 16 to 24 hrs by CLSI based broth microdilution method; type: functional; conditions: time 16-24 hrs
Enterococcus faecium [18] = test: Antibacterial activity against vancomycin-resistant Enterococcus faecium harboring VanM phenotype incubated for 16 to 24 hrs by CLSI based broth microdilution method; type: functional; conditions: time 16-24 hrs
Klebsiella pneumoniae = test: Antibacterial activity against Klebsiella pneumoniae clinical isolate incubated for 16 to 24 hrs by CLSI based broth microdilution method; type: functional; conditions: time 16-24 hrs
HEK-293T [19] = test: Cytotoxicity against HEK293T cells upto […] incubated for 72 hrs by MTT assay; type: toxicity, cell-based; conditions: human
HEK-293T [20] = test: Cytotoxicity against HEK293T cells at 100 ug/ml incubated for 72 hrs by MTT assay; type: toxicity, cell-based; conditions: human, dose 100 µg/ml
[21] = test system: Staphylococcus epidermidis; test: Antibacterial activity against methicillin-resistant Staphylococcus epidermidis clinical isolate incubated for 16 to 24 hrs by CLSI based broth microdilution method; type: functional; conditions: time 16-24 hrs
Enterococcus faecium [22] = test: Antibacterial activity against Enterococcus faecium clinical isolate incubated for 16 to 24 hrs by CLSI based broth microdilution method; type: functional; conditions: time 16-24 hrs
Staphylococcus aureus [23] = test: Induction of drug resistance in vancomycin-sensitive Staphylococcus aureus MRSA252 assessed as fold increase in MIC measured after 16 days of serial passages by broth microdilution method; type: functional; conditions: time 16 day

Row | Structure (SMILES) | MIC (Escherichia coli [4]) [µg/mL] | MIC (Staphylococcus aureus [5]) [µg/mL] | Ratio (Enterococcus faecium [6]) | Ratio (Escherichia coli [7]) | MIC (Staphylococcus aureus [8]) [µg/mL] | Ratio (Staphylococcus aureus [9]) | Ratio (Staphylococcus aureus [10]) | Ratio (Escherichia coli [11]) | Ratio (Acinetobacter baumannii [12]) | MIC (Enterococcus faecium [13]) [µg/mL] | MIC (Enterococcus faecium [14]) [µg/mL] | Ratio (Enterococcus faecium [15]) | MIC (Acinetobacter baumannii [16]) [µg/mL] | MIC (Pseudomonas aeruginosa) [µg/mL] | Ratio (Acinetobacter baumannii [17]) | MIC (Enterococcus faecium [18]) [µg/mL] | MIC (Klebsiella pneumoniae) [µg/mL] | further results
1 | CN[C@H](CC(C)C)C(=O)N[C@H]1C(=O)N[C@@H](CC(N)=O)C(=O)N[C@H]2C(=O)N[C@H]3C(=O)N[C@H](C(=O)N[C@H](C(=O)O)c4cc(O)cc(O)c4-c4cc3ccc4O)[C@H](O)c3ccc(c(Cl)c3)Oc3cc2cc(c3O[C@@H]2O[C@H](CO)[C@@H](O)[C@H](O)[C@H]2O[C@H]2C[C@](C)(N)[C@H](O)[C@H](C)O2)Oc2ccc(cc2Cl)[C@H]1O [VANCOMYCIN] |  |  |  |  |  |  |  |  |  |  |  |  |  |  |  |  |  | MIC [1]: 1 µg/mL (≈ 0.69 µM); MIC (Staphylococcus hominis): 1 µg/mL (≈ 0.69 µM); MIC (Enterococcus faecalis): ≤ 0.03 µg/mL; MIC (Enterococcus faecium [2]): > 64 µg/mL; MIC (Staphylococcus aureus [3]): 0.25 µg/mL (≈ 0.173 µM)
2 | CC(C)C[C@@H](N)C(=O)N[C@H]1C(=O)N[C@@H](CC(N)=O)C(=O)N[C@H]2C(=O)N[C@H]3C(=O)N[C@H](C(=O)N[C@H](C(=O)NCCc4ccc(-c5ccc(CNC(=N)N)cc5)cc4)c4cc(O)cc(O)c4-c4cc3ccc4O)[C@H](O)c3ccc(c(Cl)c3)Oc3cc2cc(c3O[C@@H]2O[C@H](CO)[C@@H](O)[C@H](O)[C@H]2O[C@H]2C[C@](C)(N)[C@H](O)[C@H](C)O2)Oc2ccc(cc2Cl)[C@H]1O | 8 (≈ 4.75 µM) | 0.125 (≈ 0.0742 µM) | 2 | 2 | 0.5 (≈ 0.297 µM) | 2 | 2 | 2 | 2 | 4 (≈ 2.37 µM) | 4 (≈ 2.37 µM) | 2 | 128 (≈ 75.9 µM) | > 128 | 2 | 4 (≈ 2.37 µM) | > 128 | 
3 | CN[C@H](CC(C)C)C(=O)N[C@H]1C(=O)N[C@@H](CC(N)=O)C(=O)N[C@H]2C(=O)N[C@H]3C(=O)N[C@H](C(=O)N[C@H](C(=O)NCCCCCCCCNC(=N)N)c4cc(O)cc(O)c4-c4cc3ccc4O)[C@H](O)c3ccc(c(Cl)c3)Oc3cc2cc(c3O[C@@H]2O[C@H](CO)[C@@H](O)[C@H](O)[C@H]2O[C@H]2C[C@](C)(N)[C@H](O)[C@H](C)O2)Oc2ccc(cc2Cl)[C@H]1O | 16 (≈ 9.89 µM) | 0.25 (≈ 0.155 µM) |  |  | 1 (≈ 0.618 µM) |  |  |  |  | 8 (≈ 4.95 µM) | 8 (≈ 4.95 µM) |  | 32 (≈ 19.8 µM) | 128 (≈ 79.1 µM) |  | 16 (≈ 9.89 µM) | 128 (≈ 79.1 µM) | Activity (HEK-293T [19]): Non-Toxic; Activity (HEK-293T [20]): Non-Toxic
4 | CC(C)C[C@@H](N)C(=O)N[C@H]1C(=O)N[C@@H](CC(N)=O)C(=O)N[C@H]2C(=O)N[C@H]3C(=O)N[C@H](C(=O)N[C@H](C(=O)NCc4ccc(-c5ccc(CCNC(=N)N)cc5)cc4)c4cc(O)cc(O)c4-c4cc3ccc4O)[C@H](O)c3ccc(c(Cl)c3)Oc3cc2cc(c3O[C@@H]2O[C@H](CO)[C@@H](O)[C@H](O)[C@H]2O[C@H]2C[C@](C)(N)[C@H](O)[C@H](C)O2)Oc2ccc(cc2Cl)[C@H]1O | 8 (≈ 4.75 µM) | 0.125 (≈ 0.0742 µM) | 2 | 2 | 0.5 (≈ 0.297 µM) | 2 | 2 | 2 | 2 | 4 (≈ 2.37 µM) | 4 (≈ 2.37 µM) | 2 | 64 (≈ 38 µM) | > 128 | 2 | 2 (≈ 1.19 µM) | > 128 | 
5 | CN[C@H](CC(C)C)C(=O)N[C@H]1C(=O)N[C@@H](CC(N)=O)C(=O)N[C@H]2C(=O)N[C@H]3C(=O)N[C@H](C(=O)N[C@H](C(=O)O)c4cc(O)cc(O)c4-c4cc3ccc4O)[C@H](O[C@H]3C[C@](C)(N)[C@@H](O)[C@H](C)O3)c3ccc(c(Cl)c3)Oc3cc2cc(c3O[C@@H]2O[C@H](CO)[C@@H](O)[C@H](O)[C@H]2O[C@H]2C[C@](C)(NCc3ccc(-c4ccc(Cl)cc4)cc3)[C@@H](O)[C@H](C)O2)Oc2ccc(cc2Cl)[C@H]1O [ORITAVANCIN] |  |  |  |  |  |  |  |  |  |  |  |  |  |  |  |  |  | MIC [21]: 0.12 µg/mL (≈ 0.0669 µM); MIC [1]: 0.06 µg/mL (≈ 0.0335 µM); MIC (Staphylococcus hominis): 0.12 µg/mL (≈ 0.0669 µM); MIC (Enterococcus faecalis): ≤ 0.03 µg/mL; MIC (Enterococcus faecium [22]): ≤ 0.03 µg/mL; MIC (Staphylococcus aureus [3]): 0.12 µg/mL (≈ 0.0669 µM)
6 | CN[C@H](CC(C)C)C(=O)N[C@H]1C(=O)N[C@@H](CC(N)=O)C(=O)N[C@H]2C(=O)N[C@H]3C(=O)N[C@H](C(=O)N[C@H](C(=O)NCCCCCCCCN)c4cc(O)cc(O)c4-c4cc3ccc4O)[C@H](O)c3ccc(c(Cl)c3)Oc3cc2cc(c3O[C@@H]2O[C@H](CO)[C@@H](O)[C@H](O)[C@H]2O[C@H]2C[C@](C)(N)[C@H](O)[C@H](C)O2)Oc2ccc(cc2Cl)[C@H]1O | 64 (≈ 40.6 µM) | 1 (≈ 0.635 µM) |  |  | 2 (≈ 1.27 µM) |  |  |  |  | 16 (≈ 10.2 µM) | 64 (≈ 40.6 µM) |  | 128 (≈ 81.2 µM) | 128 (≈ 81.2 µM) |  | 64 (≈ 40.6 µM) | > 128 | Activity (HEK-293T [19]): Non-Toxic; Activity (HEK-293T [20]): Non-Toxic
7 | CC(C)C[C@@H](N)C(=O)N[C@H]1C(=O)N[C@@H](CC(N)=O)C(=O)N[C@H]2C(=O)N[C@H]3C(=O)N[C@H](C(=O)N[C@H](C(=O)NCc4ccc(-c5cccc(CNC(=N)N)c5)cc4)c4cc(O)cc(O)c4-c4cc3ccc4O)[C@H](O)c3ccc(c(Cl)c3)Oc3cc2cc(c3O[C@@H]2O[C@H](CO)[C@@H](O)[C@H](O)[C@H]2O[C@H]2C[C@](C)(N)[C@H](O)[C@H](C)O2)Oc2ccc(cc2Cl)[C@H]1O | 16 (≈ 9.57 µM) | ≤ 0.063 | 2 | 2 | 0.25 (≈ 0.15 µM) | 2 | 2 | 2 | 2 | 2 (≈ 1.2 µM) | 2 (≈ 1.2 µM) | 2 | 64 (≈ 38.3 µM) | 128 (≈ 76.6 µM) | 2 | 1 (≈ 0.598 µM) | > 128 | 
8 | CCCCCCCCCC(=O)N[C@@H](Cc1c[nH]c2ccccc12)C(=O)N[C@@H](CC(N)=O)C(=O)N[C@@H](CC(=O)O)C(=O)N[C@@H]1C(=O)NCC(=O)N[C@@H](CCCN)C(=O)N[C@@H](CC(=O)O)C(=O)N[C@H](C)C(=O)N[C@@H](CC(=O)O)C(=O)NCC(=O)N[C@H](CO)C(=O)N[C@@H]([C@@H](C)CC(=O)O)C(=O)N[C@@H](CC(=O)c2ccccc2N)C(=O)O[C@@H]1C | 128 (≈ 79 µM) | 2 (≈ 1.23 µM) |  |  | 4 (≈ 2.47 µM) |  |  |  |  | 8 (≈ 4.94 µM) | 8 (≈ 4.94 µM) |  | 128 (≈ 79 µM) | > 128 |  | 8 (≈ 4.94 µM) | > 128 | fold change (FC) (Staphylococcus aureus [23]): 8
